The nature of this data set: logP determination by HPLC on reverse-phase column (C 18), EEC directive 79/831 Annex V.A8. The class given is physicochemical. Here is the method: In the acidic range, the determination is carried out at pH 2.3 using the mobile phases 0.1% aqueous phosphoric acid and acetonitrile; linear gradient from 10% acetonitrile to 90% acetonitrile.
In the neutral range, the determination is carried out at pH 7.5 using the mobile phases 0.01 molar aqueous phosphate buffer solution and acetonitrile; linear gradient from 10% acetonitrile to 90% acetonitrile.

The mark [1] stands for this setting: reverse-phase HPLC column (C 18), pH 2.3, acidic range, pH 2.3; 0.1% aqueous phosphoric acid/acetonitrile gradient; 43° C.; values marked a).
Setting [2] is: reverse-phase HPLC column (C 18), pH 7.5, neutral range, pH 7.5; 0.01 molar aqueous phosphate buffer/acetonitrile gradient; 43° C.; values marked b).

With `Fc1ccc(F)c(C2=NC(c3ccc(-c4ccc(OC(F)(F)F)cc4)cc3)CC2)c1F` (centres unmarked) [Example 118], under setting [1], the chromatographic logP (in general, lipophilicity estimated from chromatographic retention) amounted to 5.05.
Under “acidic range, pH 2.3; 0.1% aqueous phosphoric acid/acetonitrile gradient; 43° C.; values marked a)”, `O=C1CCC(c2ccc(Cl)cc2)N1` (centres unmarked) [Example V-11] gave a chromatographic logP of 1.61.
For `FC(F)(F)Oc1ccc(-c2ccc(C3CCC(c4ccccc4Br)=N3)cc2)cc1` (centres unmarked) [Example 102], the chromatographic logP under setting [1] came out at 4.52 and the chromatographic logP under setting [2] is 5.56.
In the same order, the values of `Cc1cc(Cl)ccc1C1CCC(c2cc(Cl)ccc2Cl)=N1` (centres unmarked) [Example 61] are 5.03 and 5.33.
Compound `FC(F)(F)Oc1ccc(C2CCC(c3ccccc3Cl)=N2)cc1` (centres unmarked) [Example 41] came in with a chromatographic logP under setting [2] of 4.5.
Compound `Cc1cc(-c2ccc(C3CCC(c4c(F)cccc4F)=N3)cc2)ccc1OC(F)(F)F` (centres unmarked) [Example 112] yielded a chromatographic logP under setting [1] of 4.57.
Compound `Brc1ccccc1C1=NC(c2ccc(CCc3ccccc3)cc2)CC1` (centres unmarked) [Example 88] registered a chromatographic logP under setting [1] of 3.77 and a chromatographic logP under setting [2] of 5.35.
On to `Cc1cc(Cl)ccc1C1CCC(=O)N1C(=O)OC(C)(C)C` (centres unmarked) [III-6], for which the chromatographic logP was determined as 3.24 under setting [1] and 3.25 under setting [2].
In the same order, the values of `CC(C)(C)c1ccc(C2CCC(c3ccccc3F)=N2)cc1` (centres unmarked) [Example 24] are 2.33 and 5.06.
For `Cc1ccccc1C(=O)C1CC(c2ccc(C(C)C)cc2)N(C(=O)OC(C)(C)C)C1=O` (centres unmarked) [II-5], the chromatographic logP under setting [2] came out at 5.05.
The compound `Clc1ccccc1C1=NC(c2cccc(Br)c2)CC1` (centres unmarked) [Example 15] registered a chromatographic logP under setting [1] of 2.99.
For `Cc1cc(Cl)ccc1C1CCC(c2ccccc2Br)=N1` (centres unmarked) [Example 29], the chromatographic logP under setting [1] is 3.55 and the chromatographic logP under setting [2] turned out to be 4.63.
Regarding `CC(C)(C)OC(=O)N1C(=O)CCC1c1ccc(C(C)(C)C)cc1` (centres unmarked) [III-4], the chromatographic logP under setting [1] is 3.92.
As for `Cc1ccccc1C1=NC(c2ccc(F)cc2)CC1` (centres unmarked) [Example 31], the chromatographic logP under setting [1] was 1.41.
Consider `CC(=O)c1ccc(C2CCC(c3ccccc3Br)=N2)cc1` (centres unmarked) [Example 84], for which the chromatographic logP turned out to be 2.14 under setting [1] and 3.09 under setting [2].
Take `O=C1CCC(c2ccc(SC(F)(F)F)cc2)N1` (centres unmarked) [Example V-25]: the chromatographic logP under setting [1] is 1.59.
As to `COc1ccc(C2CCC(=O)N2)cc1F` (centres unmarked) [Example V-9], the chromatographic logP under setting [1] was 1.29.
Same read-out and setting: in the case of `O=C1CCC(c2ccc(Cl)c(Cl)c2)N1` (centres unmarked) [Example V-10] it was 1.92.
Still for that read-out and setting: the value for `O=C1CCC(c2ccc(F)cc2)N1` (centres unmarked) [Example V-17] was 1.32.
In turn, `COc1ccc(C2CCC(=O)N2C(=O)OC(C)(C)C)cc1F` (centres unmarked) [III-7] gave a chromatographic logP under setting [1] of 2.43.
On the same count and under the same terms, in the case of `CC(C)(C)OC(=O)N1C(=O)CCC1c1ccc(-c2ccc(Br)cc2)cc1` (centres unmarked) [III-27] it was 4.26.
For the compound `Clc1ccc(C2CCC(c3ccccc3Cl)=N2)cc1Cl` (centres unmarked) [Example 45], the chromatographic logP under setting [1] was determined as 3.83 and the chromatographic logP under setting [2] came out at 4.75.
`CC(C)(C)OC(=O)N1C(=O)C(C(=O)c2ccccc2C(F)(F)F)CC1c1ccc(Br)cc1` (centres unmarked) [II-3]: the chromatographic logP under setting [2] amounted to 3.03.
With `CC(C)Oc1ccc(-c2ccc(C3CCC(=O)N3C(=O)OC(C)(C)C)cc2)cc1` (centres unmarked) [III-23], the chromatographic logP under setting [1] turned out to be 4.17.
`COc1ccccc1C1=NC(c2ccc(-c3ccc(OC(F)(F)F)cc3)cc2)CC1` (centres unmarked) [Example 5]: the chromatographic logP reads like this: under setting [1], 2.55; under setting [2], 5.23.
Turning to `Oc1ccc(C2CCC(c3c(F)cccc3F)=N2)cc1` (centres unmarked) [Example 106], the chromatographic logP under setting [1] is 0.91.
The compound `CC(C)c1ccc(C2CCC(c3ccccc3Br)=N2)cc1` (centres unmarked) [Example 23] returned a chromatographic logP under setting [1] of 3.06.
Regarding `COc1ccc(C2CCC(c3ccccc3Br)=N2)cc1` (centres unmarked) [Example 42], the chromatographic logP is 1.79 under setting [1] and 3.5 under setting [2].
In turn, `CCOC(=O)Oc1ccc(-c2ccc(C3CCC(c4ccccc4Cl)=N3)cc2)cc1` (centres unmarked) [Example 96] had a chromatographic logP under setting [1] of 3.14.
Same read-out and setting: in the case of `Cc1ccc(C2CCC(=O)N2)cc1Cl` (centres unmarked) [Example V-12] it was 1.92; in that of `CC(C)(C)OC(=O)N1C(=O)CCC1c1ccc(CCc2ccccc2)cc1` (centres unmarked) [III-19], 4.11.
The compound `CC(C)(C)OC(=O)N1C(=O)CCC1c1ccc(-c2ccc(OCc3ccc(OC(F)(F)F)cc3)cc2)cc1` (centres unmarked) [III-25] displayed a chromatographic logP under setting [1] of 5.03.
The compound `Fc1ccc(C2CCC(c3cc(Cl)ccc3Cl)=N2)cc1` (centres unmarked) [Example 51] yielded a chromatographic logP under setting [1] of 3.79 and a chromatographic logP under setting [2] of 4.36.
For `CCOc1cc(C(C)(C)C)ccc1C1CCC(c2ccccc2Br)=N1` (centres unmarked) [Example 57] the same measures were 3.31 and 5.8.
Consider `Cc1ccccc1C1=NC(c2ccc(C(C)C)cc2)CC1` (centres unmarked) [Example 25], for which the chromatographic logP amounted to 2.11 under setting [1] and 5.01 under setting [2].
In the same order, the values of `Brc1ccc(C2=NC(c3ccccc3)CC2)cc1` (centres unmarked) [Example 72] are 1.59 and 4.06.
Under setting [1], `CC(C)c1ccc(C2CCC(c3ccccc3F)=N2)cc1` (centres unmarked) [Example 22] came in with a chromatographic logP of 2.09.
Turning to `FC(F)(F)Oc1ccc(C2=NC(c3ccccc3)CC2)cc1` (centres unmarked) [Example 66], the chromatographic logP by setting is: under setting [1], 2.02; under setting [2], 4.26.
`C=CCOc1ccc(C2CCC(c3ccccc3F)=N2)cc1` (centres unmarked) [Example 10] displayed a chromatographic logP under setting [1] of 1.63.
As to `Clc1ccc(C2CCC(c3ccccc3Cl)=N2)cc1` (centres unmarked) [Example 82], the chromatographic logP is, setting by setting: under setting [1], 2.6; under setting [2], 4.23.
On to `Cc1ccc(C2CCC(c3ccccc3Br)=N2)cc1` (centres unmarked) [Example 81], for which the chromatographic logP amounted to 2.17 under setting [1] and 4.07 under setting [2].
With `CC(C)(C)OC(=O)N1C(=O)CCC1c1ccc(Cl)cc1` (centres unmarked) [III-13], the chromatographic logP under setting [1] was 2.93.
Under setting [1], `FC(F)(F)Sc1ccc(-c2ccc(C3CCC(c4ccc(Cl)cc4Cl)=N3)cc2)cc1` (centres unmarked) [Example 19] registered a chromatographic logP of 6.19.
`CC(C)(C)OC(=O)N1C(=O)CCC1c1ccc(Cl)cc1Cl` (centres unmarked) [III-10]: the chromatographic logP under setting [1] was determined as 3.54.
The same measure, in the same setting: the value for `Cc1ccc(C2CCC(=O)N2C(=O)OC(C)(C)C)c(C)c1` (centres unmarked) [III-17] was 3.2.
Consider `Clc1ccccc1C1=NC(c2ccc(Br)cc2)CC1` (centres unmarked) [Example 89], for which the chromatographic logP was 2.76 under setting [1] and 4.36 under setting [2].
Consider `CCOc1cc(C(C)(C)C)ccc1C1CCC(=O)N1` (centres unmarked) [Example V-3, 5-(4-tert-butyl-2-ethoxyphenyl)-2-pyrrolidinone], for which the chromatographic logP under setting [1] was 2.84.
Still for that read-out and setting: the value for `O=C1CCC(c2ccccc2)N1` (centres unmarked) [Example V-15] was 1.21; that for `CC(C)c1ccc(C2CCC(=O)N2)cc1` (centres unmarked) [Example V-5] was 2.13; that for `Fc1cccc(F)c1C1=NC(c2ccc(OCC(F)(F)F)cc2)CC1` (centres unmarked) [Example 9] was 2.41.
`CC(C)(C)OC(=O)N1C(=O)C(C(=O)c2ccc(Cl)c(Cl)c2)CC1c1ccccc1` (centres unmarked) [II-6] registered a chromatographic logP under setting [2] of 4.6.
Turning to `FC(F)(F)Sc1ccc(-c2ccc(C3CCC(c4ccccc4Cl)=N3)cc2)cc1` (centres unmarked) [Example 16], the chromatographic logP stood at 4.67 under setting [1] and 5.94 under setting [2].
Under setting [2], `Clc1ccccc1C1=NC(c2ccc(C3CCCCC3)cc2)CC1` (centres unmarked) [Example 67] registered a chromatographic logP of 6.04.
Compound `Fc1cccc(F)c1C1=NC(c2ccc(OCc3ccc(C(F)(F)F)cc3)cc2)CC1` (centres unmarked) [Example 108] returned a chromatographic logP under setting [1] of 3.41.
For `CC(C)(C)OC(=O)N1C(=O)CCC1c1ccc(-c2ccc(SC(F)(F)F)cc2)cc1` (centres unmarked) [III-3], under setting [1], the chromatographic logP was found to be 4.67.
For the compound `Clc1ccc(C2=NC(c3ccccc3)CC2)cc1Cl` (centres unmarked) [Example 44], the chromatographic logP reads like this: under setting [1], 2.68; under setting [2], 4.59.
Consider `CC(C)(C)OC(=O)N1C(=O)CCC1c1ccc(F)cc1` (centres unmarked) [III-21], for which the chromatographic logP under setting [1] stood at 2.57.
As to `Cc1ccc(C2CCC(c3ccccc3Cl)=N2)c(C)c1` (centres unmarked) [Example 71], the chromatographic logP was 2.82 under setting [1] and 4.45 under setting [2].
In the same order, the values of `Clc1ccc(C2CCC(c3ccccc3Br)=N2)cc1` (centres unmarked) [Example 83] are 2.96 and 4.22.
As to `Fc1cccc(F)c1C1=NC(c2ccc(-c3ccc(Br)cc3)cc2)CC1` (centres unmarked) [Example 113], under setting [1], the chromatographic logP came out at 3.98.
Compound `Cc1ccc(C2CCC(=O)N2)c(Cl)c1` (centres unmarked) [Example V-7] returned a chromatographic logP under setting [1] of 1.92.
`CSc1ccc(C2CCC(c3ccccc3Br)=N2)cc1` (centres unmarked) [Example 58]: the chromatographic logP runs as follows: under setting [1], 2.5; under setting [2], 4.03.
For `Fc1ccc(C2CCC(c3ccccc3)=N2)cc1` (centres unmarked) [Example 32] the same measures were 1.12 and 3.34.
Under setting [1], `CC(C)(C)OC(=O)N1C(=O)CCC1c1ccc(OC(F)(F)F)cc1` (centres unmarked) [III-1, tert-butyl 2-oxo-5-[4-(trifluoromethoxy)phenyl]-1-pyrrolidinecarboxylate] came in with a chromatographic logP of 3.28.
`Clc1ccc(C2=NC(c3ccccc3)CC2)cc1` (centres unmarked) [Example 90] returned a chromatographic logP under setting [1] of 1.43.
Take `CC(C)(C)OC(=O)N1C(=O)CCC1c1ccc(C2CCCCC2)cc1` (centres unmarked) [III-18]: the chromatographic logP under setting [1] worked out at 4.71.
In the case of `Fc1ccccc1C1=NC(c2ccccc2)CC1` (centres unmarked) [Example 76], the chromatographic logP is, setting by setting: under setting [1], 1.16; under setting [2], 3.45.
Turning to `CC(C)c1ccc(C2CCC(c3ccccc3Cl)=N2)cc1` (centres unmarked) [Example 21], under setting [1], the chromatographic logP is 2.74.
The same measure, in the same setting: the value for `O=C1CCC(c2ccc(-c3ccc(OC(F)(F)F)cc3)cc2)N1` (centres unmarked) [Example V-27] was 2.96.
The same measure, in the same setting: in the case of `CC(C)(C)OC(=O)N1C(=O)CCC1c1ccccc1` (centres unmarked) [III-2] it was 2.52.

Source of the values: patent publication US7250521B2, “Method for production of Δ1-pyrrolines” (Bayer CropScience Aktiengesellschaft, priority 2001, dated 2007).
